In US12415939B2, “Nano-adhesive and surface primer compound and use thereof” (The Regents of the University of California, priority 2015, dated 2025):

Columns and labels:
[1] = Contact angle measurements on SAM-modified substrates; format: physicochemical; details: SAM-modified nano-grooved SiO2
Experimental: The nano-grooved SiO2 substrates passivated with Z-Cat-Ben or Z-Cat-Ben-F SAMs were prepared with the same procedure described above. For the reference substrate, the pre-cleaned and ultraviolet/ozone-treated (for 10 min) nano-grooved SiO2 substrate was passivated with n-decyltrichlorosilane (Gelest Inc.) in toluene solution (1% by volume) at 80° C. for 20 min in ambient air. Then, the substrate was subsequently sonicated in toluene and rinsed with additional toluene several times. Anhydrous chlorobenzene (50 μL) was used as a droplet dropping on the substrates. All contact angle images were taken at the direction perpendicular to nano-grooves in the substrates using Dataphysics OCA 15EC goniometer.

[2] = OFET characterization (saturation hole mobility); details: Au source and drain electrodes
From the text: The OFETs were fabricated onto nano-grooved SiO2 substrates prepared by rubbing n^++Si (500 μm)/SiO2 (300 nm) substrate (International Wafer Services Co.) with a diamond lapping disc with particle sizes of 100 nm (Allied High Tech Products Inc.) as described in detail in the previous reports. The Ni (5 nm)/Au (50 nm) source and drain electrodes were patterned on the SiO2 dielectrics through a conventional photolithography process. For OFETs with Ni source and drain electrodes, an additional Ni (10 nm) layer was deposited on top of the pre-deposited Au electrodes. All metal electrodes were deposited by electron beam evaporation at 7×10^−7 Torr. Then, the substrates were sonicated in acetone and isopropanol for cleaning, and were kept in an oven at >100° C. for overnight. After ultraviolet/ozone treatment of pre-cleaned nano-grooved SiO2 substrates for 10 min, the substrates were passivated with the Z-Cat-Ben or Z-Cat-Ben-F SAM by dropping SAM water solution (5 mM) onto the substrates for ˜1 min. The substrates were subsequently rinsed with deionized water for ˜1 min, and were kept in a low vacuum for 10 min to remove residual water. The PCDTPT (1-Material Inc.) was then cast from a chlorobenzene solution (0.25 mg mL^−1) through the sandwich casting in a nitrogen-filled glove box. The devices were then cured at 200° C. for 1 min prior to measurements, and were tested using a probe station (Signatone Co.) in a nitrogen-filled glove box. Data were collected by a Keithley 4200 system.
The field-effect mobilities in the saturation regime were extracted using the following equation, IDS=(W/2L)Cμ(VGS−VT)^2 (7) where, W is the channel width, L is the channel length, C is the gate dielectric capacitance per unit area, μ is the carrier mobility in the saturation regime, IDS is the drain-source current, and VGS is the gate-source voltage. Channel width/length is 1000/200 μm for the devices used in this study. Transistor Characteristics of OFETs with Z-Cat-Ben and Z-Cat-Ben-F: Contact Angle Measurements: […]

[3] = Standard three point bending peel test; details: ambient dry, n=4
Experimental: Samples were prepared as described above in “Lap Joint Bending Peel Test” underwater, i.e., aqueous periodate solution, then dried 12 h and 24 h, respectively, in ambient condition. In this standard three point bending peel test, the cross section area was 2.54 cm×1.27 cm.
The standard three point bending peel test (FIG. 24F) was conducted with a Bionix 200 tensile tester (MTS Systems) in ambient conditions. All tests were conducted with a test speed of 5 mm min-1.

[4] = Shear bonding strength of the lap joint; details: cross-sectional area 2.54 cm×2.54 cm, n=4
Experimental: The catecholic zwitterions were inspired by interfacial proteins (mfp-3 and -5) that function as adhesive primers, but not as bulk adhesives. To determine whether Z-Cat-C10 is limited to surface binding or develops measurable bulk cohesion (thickness […]), bulk rupture tests were done using a peeling-by-bending test to better mimic the role that interfacial proteins play in resisting plaque detachment as well as lap-shear bonding test. Lap joints were prepared by gluing two steel plates (SS304) immersed in water using the lower dense coacervate (˜10 μl) (FIGS. 24A-24H). The lap joint (cross-sectional area=2.54 cm×2.54 cm) prepared in artificial seawater or periodate solution, respectively, held a load up to 3 N underwater. […] After 12 h ambient drying, the joint prepared in 1 M periodate solution held much higher load, 11 N: Standard three point bending peel strength of the lap joint (cross-sectional area=2.54 cm×1.27 cm) was measured under ambient dry conditions after drying 12 h. […] Shear bonding strength of the lap joint (cross-sectional area=2.54 cm×2.54 cm) was also measured, 1.1 MPa (standard deviation=0.3, n=4)—similar to Dopa-functionalized polypeptide prepared under ambient dry conditions, 0.9 MPa. […]

[5] = Critical aggregation concentration by Wilhelmy plate tensiometry; format: physicochemical; details: DI water
Experimental: (§1) Aqueous colloidal dispersions of each homolog were prepared in deoxygenated deionized (DI) water. The critical aggregation concentration (CAC) was determined from the solution surface tension of varying homolog concentrations in deionized (DI) water (e.g., see the red line of Z-Cat-C10 in FIG. 2B) by Wilhelmy plate tensiometry and has been described elsewhere. Use of the CAC instead of CMC here is a hedge to accommodate the uncertainty about whether micelles or other soluble aggregates were forming.
as §1, with “the” for “the red”

[6] = AFM images of Z-Cat-C10 films; format: physicochemical; details: 5 mM, on silicon wafers and copper
Experimental: The adhesion/cohesion energy of the synthetic zwitterionic molecules was investigated in SFA (SurForce LLC, Santa Barbara, CA). Two molecularly smooth freshly cleaved back silvered mica surfaces glued on cylindrical silica discs of radius of curvature, R˜2 cm, were mounted in the SFA and 50 μL of a colloidal dispersion of the synthetic molecules in DI water were injected between the surfaces at different concentrations (C=0.5-5 mM) and the forces between the thin films of the molecules were measured by Multiple Beam Interferometry (MBI). The adhesion forces between Z-Cat-C10 molecules on various surfaces, e.g., silica and copper, were also measured by AFM (MFP-3D, Asylum research, Goleta, CA) in DI water and ambient conditions, respectively, at room temperature. AFM probes with a silicon dioxide particle (10, 5, and 1 μm, respectively) on a silicon nitride (SN) cantilever-0.6 N m^−1 were purchased from Novascan Technologies, Inc (Ames, IA). Cantilever spring constants were measured for each force run. Images of Z-Cat-C10 coating on silicon wafer and copper plates were visualized in an AFM.

Compound | contact angle θ of chlorobenzene droplet [1] | saturation hole mobility μ [2] | three point bending peel strength [3] | shear bonding strength of the lap joint [4] | critical aggregation concentration (CAC), rank [5] | film thickness (thin, molecularly smooth films) [6]
C[N+](C)(CCCc1ccccc1)CCOP(=O)([O-])OCCCc1ccc(O)c(O)c1 [Z-Cat-Ben] | ≈ 1 ° | 22±4 cm^2 V^−1 s^−1 |  |  |  | 
CN(C)CCOP(=O)(O)OCCCc1ccc(O)c(O)c1 [Z-Cat-C10] |  |  | 20.5 N cm^−1 | 1.1 MPa | lowest CAC among the homologs | ~2 nm
